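Cultured in 96-well plates, cells were exposed to test compound for 48 hours across five concentrations. GI50 marks 50% less growth. At the TGI there is no net growth.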
What was measured:
Experiment in all cases: NCI-60 cell line screen, 48 h; in the data active = GI50 below about 0.43 µM; inactive = the rest
786-0 renal = tested on: 786-0 renal
A498 renal = tested on: A498 renal
A549 NSCLC = tested on: A549 NSCLC
ACHN renal = tested on: ACHN renal
BT-549 breast = tested on: BT-549 breast
CAKI-1 renal = tested on: CAKI-1 renal
CCRF-CEM leukemia = tested on: CCRF-CEM leukemia
COLO 205 colon = tested on: COLO 205 colon
DU-145 prostate = tested on: DU-145 prostate
EKVX NSCLC = tested on: EKVX NSCLC
HCC-2998 colon = tested on: HCC-2998 colon
HCT-116 colon = tested on: HCT-116 colon
HCT-15 colon = tested on: HCT-15 colon
HL-60(TB) leukemia = tested on: HL-60(TB) leukemia
HOP-62 NSCLC = tested on: HOP-62 NSCLC
HOP-92 NSCLC = tested on: HOP-92 NSCLC
HS 578T breast = tested on: HS 578T breast
HT29 colon = tested on: HT29 colon
IGROV1 ovarian = tested on: IGROV1 ovarian
K-562 leukemia = tested on: K-562 leukemia
KM12 colon = tested on: KM12 colon
LOX IMVI melanoma = tested on: LOX IMVI melanoma
M14 melanoma = tested on: M14 melanoma
MALME-3M melanoma = tested on: MALME-3M melanoma
MCF7 breast = tested on: MCF7 breast
MDA-MB-231 breast = tested on: MDA-MB-231 breast
MDA-MB-435 = tested on: MDA-MB-435
MDA-N = tested on: MDA-N
MOLT-4 leukemia = tested on: MOLT-4 leukemia
NCI-H226 lung = tested on: NCI-H226 lung
NCI-H23 lung = tested on: NCI-H23 lung
NCI-H460 lung = tested on: NCI-H460 lung
NCI-H522 lung = tested on: NCI-H522 lung
NCI/ADR-RES ovarian = tested on: NCI/ADR-RES ovarian
OVCAR-3 ovarian = tested on: OVCAR-3 ovarian
OVCAR-4 ovarian = tested on: OVCAR-4 ovarian
OVCAR-5 ovarian = tested on: OVCAR-5 ovarian
OVCAR-8 ovarian = tested on: OVCAR-8 ovarian
PC-3 prostate = tested on: PC-3 prostate
RPMI-8226 leukemia = tested on: RPMI-8226 leukemia
RXF 393 renal = tested on: RXF 393 renal
SF-268 CNS = tested on: SF-268 CNS
SF-295 CNS = tested on: SF-295 CNS
SF-539 CNS = tested on: SF-539 CNS
SK-MEL-2 melanoma = tested on: SK-MEL-2 melanoma
SK-MEL-28 melanoma = tested on: SK-MEL-28 melanoma
SK-MEL-5 melanoma = tested on: SK-MEL-5 melanoma
SK-OV-3 ovarian = tested on: SK-OV-3 ovarian
SN12C renal = tested on: SN12C renal
SNB-19 CNS = tested on: SNB-19 CNS
SNB-75 CNS = tested on: SNB-75 CNS
SR leukemia = tested on: SR leukemia
SW-620 colon = tested on: SW-620 colon
T-47D breast = tested on: T-47D breast
TK-10 renal = tested on: TK-10 renal
U251 CNS = tested on: U251 CNS
UACC-257 melanoma = tested on: UACC-257 melanoma
UACC-62 melanoma = tested on: UACC-62 melanoma
UO-31 renal = tested on: UO-31 renal
DLD-1 colon = tested on: DLD-1 colon
DMS 114 small cell lung = tested on: DMS 114 small cell lung
HOP-18 NSCLC = tested on: HOP-18 NSCLC
KM20L2 colon = tested on: KM20L2 colon
LXFL 529 NSCLC = tested on: LXFL 529 NSCLC
M19-MEL melanoma = tested on: M19-MEL melanoma
SNB-78 CNS = tested on: SNB-78 CNS
DMS 273 small cell lung = tested on: DMS 273 small cell lung

Cc1ccc(NC(=O)c2cc(S(=O)(=O)Nc3nc4ncccc4[nH]3)c(SSc3cc(Cl)c(C(=O)Nc4ccc(C)cc4)cc3S(=O)(=O)Nc3nc4ncccc4[nH]3)cc2Cl)cc1
> 100 µM: TGI (786-0 renal) | TGI (A498 renal) | TGI (A549 NSCLC) | TGI (ACHN renal) | TGI (BT-549 breast) | TGI (CAKI-1 renal) | TGI (CCRF-CEM leukemia) | TGI (COLO 205 colon) | TGI (DU-145 prostate) | TGI (EKVX NSCLC) | TGI (HCC-2998 colon) | TGI (HCT-116 colon) | TGI (HCT-15 colon) | TGI (HL-60(TB) leukemia) | TGI (HOP-62 NSCLC) | TGI (HOP-92 NSCLC) | TGI (HS 578T breast) | TGI (HT29 colon) | TGI (IGROV1 ovarian) | TGI (K-562 leukemia) | TGI (KM12 colon) | TGI (LOX IMVI melanoma) | TGI (M14 melanoma) | TGI (MALME-3M melanoma) | TGI (MCF7 breast) | TGI (MDA-MB-231 breast) | TGI (MDA-MB-435) | TGI (MDA-N) | TGI (MOLT-4 leukemia) | TGI (NCI-H226 lung) | TGI (NCI-H23 lung) | TGI (NCI-H460 lung) | TGI (NCI-H522 lung) | TGI (NCI/ADR-RES ovarian) | TGI (OVCAR-3 ovarian) | TGI (OVCAR-4 ovarian) | TGI (OVCAR-5 ovarian) | TGI (OVCAR-8 ovarian) | TGI (PC-3 prostate) | TGI (RPMI-8226 leukemia) | TGI (RXF 393 renal) | TGI (SF-268 CNS) | TGI (SF-295 CNS) | TGI (SF-539 CNS) | TGI (SK-MEL-2 melanoma) | TGI (SK-MEL-28 melanoma) | TGI (SK-MEL-5 melanoma) | TGI (SK-OV-3 ovarian) | TGI (SN12C renal) | TGI (SNB-19 CNS) | TGI (SNB-75 CNS) | TGI (SR leukemia) | TGI (SW-620 colon) | TGI (T-47D breast) | TGI (TK-10 renal) | TGI (U251 CNS) | TGI (UACC-257 melanoma) | TGI (UACC-62 melanoma) | TGI (UO-31 renal)

O=C(c1ccccc1)c1cn(/N=C\c2ccccc2)c(=O)nc1-c1ccccc1
> 100 µM: TGI (786-0 renal) | TGI (A498 renal) | TGI (A549 NSCLC) | TGI (ACHN renal) | TGI (CCRF-CEM leukemia) | TGI (COLO 205 colon) | TGI (DLD-1 colon) | TGI (DMS 114 small cell lung) | TGI (EKVX NSCLC) | TGI (HCC-2998 colon) | TGI (HCT-116 colon) | TGI (HCT-15 colon) | TGI (HOP-18 NSCLC) | TGI (HOP-62 NSCLC) | TGI (HOP-92 NSCLC) | TGI (HT29 colon) | TGI (K-562 leukemia) | TGI (KM12 colon) | TGI (KM20L2 colon) | TGI (LOX IMVI melanoma) | TGI (LXFL 529 NSCLC) | TGI (M14 melanoma) | TGI (M19-MEL melanoma) | TGI (MALME-3M melanoma) | TGI (MOLT-4 leukemia) | TGI (NCI-H226 lung) | TGI (NCI-H23 lung) | TGI (NCI-H460 lung) | TGI (NCI-H522 lung) | TGI (OVCAR-3 ovarian) | TGI (OVCAR-4 ovarian) | TGI (OVCAR-5 ovarian) | TGI (OVCAR-8 ovarian) | TGI (RXF 393 renal) | TGI (SF-268 CNS) | TGI (SF-295 CNS) | TGI (SF-539 CNS) | TGI (SK-MEL-2 melanoma) | TGI (SK-MEL-28 melanoma) | TGI (SK-MEL-5 melanoma) | TGI (SK-OV-3 ovarian) | TGI (SN12C renal) | TGI (SNB-19 CNS) | TGI (SNB-75 CNS) | TGI (SNB-78 CNS) | TGI (SW-620 colon) | TGI (TK-10 renal) | TGI (U251 CNS) | TGI (UACC-257 melanoma) | TGI (UACC-62 melanoma) | TGI (UO-31 renal)

O=c1cccccc1[O-].O=c1cccccc1[O-].O=c1cccccc1[O-].[La+3]
52 µM: TGI (UACC-62 melanoma)
86.9 µM: TGI (SK-OV-3 ovarian) | TGI (SNB-78 CNS)
38 µM: TGI (SF-539 CNS)
31.2 µM: TGI (HCT-116 colon)
76.2 µM: TGI (U251 CNS)
51.5 µM: TGI (OVCAR-8 ovarian)
39.6 µM: TGI (SF-295 CNS)
> 100 µM: TGI (A549 NSCLC) | TGI (ACHN renal) | TGI (CAKI-1 renal) | TGI (DLD-1 colon) | TGI (DMS 273 small cell lung) | TGI (EKVX NSCLC) | TGI (HCC-2998 colon) | TGI (HCT-15 colon) | TGI (HOP-92 NSCLC) | TGI (HT29 colon) | TGI (K-562 leukemia) | TGI (KM12 colon) | TGI (KM20L2 colon) | TGI (LOX IMVI melanoma) | TGI (MOLT-4 leukemia) | TGI (NCI-H23 lung) | TGI (NCI-H460 lung) | TGI (OVCAR-4 ovarian) | TGI (OVCAR-5 ovarian) | TGI (RPMI-8226 leukemia) | TGI (SN12C renal) | TGI (SW-620 colon)
78.5 µM: TGI (HOP-62 NSCLC)
55.8 µM: TGI (OVCAR-3 ovarian)
22.4 µM: TGI (SK-MEL-5 melanoma)
31.9 µM: TGI (MALME-3M melanoma) | TGI (RXF 393 renal)
51.3 µM: TGI (CCRF-CEM leukemia)
30.9 µM: TGI (HL-60(TB) leukemia)
30.4 µM: TGI (786-0 renal)
47.9 µM: TGI (UACC-257 melanoma)
75.8 µM: TGI (IGROV1 ovarian)
90.1 µM: TGI (A498 renal)
84.1 µM: TGI (SNB-19 CNS)
inactive: GI50 (A498 renal) 23.6 µM | GI50 (DLD-1 colon) 22.7 µM | GI50 (DMS 273 small cell lung) 5.98 µM | GI50 (HOP-62 NSCLC) 31.4 µM | GI50 (KM20L2 colon) 17 µM | GI50 (SF-539 CNS) 5.62 µM | GI50 (SN12C renal) 22.3 µM | GI50 (SNB-78 CNS) 10.5 µM | GI50 (U251 CNS) 11 µM
99 µM: TGI (NCI-H226 lung)
53.8 µM: TGI (M14 melanoma)
67.9 µM: TGI (TK-10 renal)
65.8 µM: TGI (UO-31 renal)
84.2 µM: TGI (NCI-H522 lung)
48 µM: TGI (SK-MEL-2 melanoma)

— PubChem BioAssay (NCI)
